According to the CheMixHub viscosity set:

Test: xn = mol fraction of the nth substance listed

C1CCC2CCCCC2C1 (configuration not stated) + C1CCCCC1
298.15 K, 101 kPa
Conditions | viscosity [mPa·s]
x1 = 0.1473 | 1.061
x1 = 0.3151 | 1.26
x1 = 0.5054 | 1.48
x1 = 0.7334 | 1.77

CCCCCCCC + C1CCCCC1
Conditions | viscosity [mPa·s]
298.15 K, 100 kPa, x2 = 0.2 | 0.5398
298.15 K, 100 kPa, x2 = 0.4 | 0.5777
298.15 K, 100 kPa, x2 = 0.6 | 0.6273
298.15 K, 100 kPa, x2 = 0.8 | 0.7162
298.15 K, 101.33 kPa, x2 = 0.0972 | 0.516
298.15 K, 101.33 kPa, x2 = 0.1084 | 0.5318
298.15 K, 101.33 kPa, x2 = 0.2042 | 0.53
298.15 K, 101.33 kPa, x2 = 0.2223 | 0.549
298.15 K, 101.33 kPa, x2 = 0.3014 | 0.548
298.15 K, 101.33 kPa, x2 = 0.3199 | 0.569
298.15 K, 101.33 kPa, x2 = 0.4044 | 0.568
298.15 K, 101.33 kPa, x2 = 0.412 | 0.5851
298.15 K, 101.33 kPa, x2 = 0.5009 | 0.607
298.15 K, 101.33 kPa, x2 = 0.5017 | 0.591
298.15 K, 101.33 kPa, x2 = 0.5763 | 0.628
298.15 K, 101.33 kPa, x2 = 0.6029 | 0.62
298.15 K, 101.33 kPa, x2 = 0.6597 | 0.6568
298.15 K, 101.33 kPa, x2 = 0.7041 | 0.661
298.15 K, 101.33 kPa, x2 = 0.7236 | 0.6788
298.15 K, 101.33 kPa, x2 = 0.7926 | 0.7148
298.15 K, 101.33 kPa, x2 = 0.8014 | 0.705
298.15 K, 101.33 kPa, x2 = 0.8586 | 0.8162
298.15 K, 101.33 kPa, x2 = 0.8971 | 0.774
298.15 K, 101.33 kPa, x2 = 0.9173 | 0.8737
298.15 K, 101.33 kPa, x2 = 0.9767 | 0.8737
303.15 K, 101 kPa, x2 = 0.1031 | 0.4956
303.15 K, 101 kPa, x2 = 0.1978 | 0.51
303.15 K, 101 kPa, x2 = 0.2979 | 0.5238
303.15 K, 101 kPa, x2 = 0.4018 | 0.5434
303.15 K, 101 kPa, x2 = 0.4842 | 0.5614
303.15 K, 101 kPa, x2 = 0.7004 | 0.6348
303.15 K, 101 kPa, x2 = 0.8984 | 0.7473
303.15 K, 101.33 kPa, x2 = 0.0972 | 0.487
303.15 K, 101.33 kPa, x2 = 0.2042 | 0.498
303.15 K, 101.33 kPa, x2 = 0.3014 | 0.515
303.15 K, 101.33 kPa, x2 = 0.4044 | 0.533
303.15 K, 101.33 kPa, x2 = 0.5017 | 0.554
303.15 K, 101.33 kPa, x2 = 0.6029 | 0.581
303.15 K, 101.33 kPa, x2 = 0.7041 | 0.614
303.15 K, 101.33 kPa, x2 = 0.8014 | 0.656
303.15 K, 101.33 kPa, x2 = 0.8971 | 0.717
308.15 K, 101.33 kPa, x2 = 0.0972 | 0.459
308.15 K, 101.33 kPa, x2 = 0.2042 | 0.469
308.15 K, 101.33 kPa, x2 = 0.3014 | 0.483
308.15 K, 101.33 kPa, x2 = 0.4044 | 0.501
308.15 K, 101.33 kPa, x2 = 0.5017 | 0.518
308.15 K, 101.33 kPa, x2 = 0.6029 | 0.543
308.15 K, 101.33 kPa, x2 = 0.7041 | 0.573
308.15 K, 101.33 kPa, x2 = 0.8014 | 0.608
308.15 K, 101.33 kPa, x2 = 0.8971 | 0.664
323.15 K, 100 kPa, x2 = 0.2 | 0.4103
323.15 K, 100 kPa, x2 = 0.4 | 0.4326
323.15 K, 100 kPa, x2 = 0.6 | 0.4655
323.15 K, 100 kPa, x2 = 0.8 | 0.5138

CCCCCCCCCCCCCC + C1CCCCC1
298.15 K, 101.33 kPa
Conditions | viscosity [mPa·s]
x1 = 0.0144 | 0.9238
x2 = 0.1743 | 1.907
x2 = 0.3074 | 1.756
x2 = 0.4253 | 1.621
x2 = 0.5304 | 1.486
x2 = 0.6125 | 1.384
x2 = 0.6841 | 1.291
x2 = 0.7505 | 1.207
x2 = 0.8066 | 1.131
x2 = 0.8651 | 1.064
x2 = 0.9088 | 1.01
x2 = 0.9483 | 0.9646

CCCCCO + C1CCCCC1
Conditions | viscosity [mPa·s]
293.15 K, 100 kPa, x2 = 0.0815 | 3.56
293.15 K, 100 kPa, x2 = 0.1623 | 3.17
293.15 K, 100 kPa, x2 = 0.2416 | 2.81
293.15 K, 100 kPa, x2 = 0.3481 | 2.37
293.15 K, 100 kPa, x2 = 0.4401 | 2.06
293.15 K, 100 kPa, x2 = 0.5592 | 1.69
293.15 K, 100 kPa, x2 = 0.6501 | 1.46
293.15 K, 100 kPa, x2 = 0.7414 | 1.28
293.15 K, 100 kPa, x2 = 0.8502 | 1.1
293.15 K, 100 kPa, x2 = 0.9414 | 1.02
298.15 K, 101 kPa, x1 = 0.0229 | 0.889
298.15 K, 101 kPa, x1 = 0.0543 | 0.908
298.15 K, 101 kPa, x1 = 0.14 | 0.991
298.15 K, 101 kPa, x1 = 0.2319 | 1.064
298.15 K, 101 kPa, x1 = 0.3975 | 1.326
298.15 K, 101 kPa, x1 = 0.5045 | 1.548
298.15 K, 101 kPa, x1 = 0.6384 | 1.974
298.15 K, 101 kPa, x1 = 0.7129 | 2.264
298.15 K, 101 kPa, x1 = 0.8283 | 2.738
298.15 K, 101 kPa, x1 = 0.904 | 3.066
303.15 K, 100 kPa, x2 = 0.0815 | 2.7
303.15 K, 100 kPa, x2 = 0.1623 | 2.41
303.15 K, 100 kPa, x2 = 0.2416 | 2.15
303.15 K, 100 kPa, x2 = 0.3481 | 1.84
303.15 K, 100 kPa, x2 = 0.4401 | 1.61
303.15 K, 100 kPa, x2 = 0.5592 | 1.34
303.15 K, 100 kPa, x2 = 0.6501 | 1.18
303.15 K, 100 kPa, x2 = 0.7414 | 1.05
303.15 K, 100 kPa, x2 = 0.8502 | 0.92
303.15 K, 100 kPa, x2 = 0.9414 | 0.85
303.15 K, 101 kPa, x1 = 0.6491 | 1.531
303.15 K, 101.33 kPa, x1 = 0.0977 | 0.8877
303.15 K, 101.33 kPa, x1 = 0.2165 | 0.9922
303.15 K, 101.33 kPa, x1 = 0.3008 | 1.095
303.15 K, 101.33 kPa, x1 = 0.4012 | 1.222
303.15 K, 101.33 kPa, x1 = 0.5004 | 1.388
303.15 K, 101.33 kPa, x1 = 0.6025 | 1.586
303.15 K, 101.33 kPa, x1 = 0.7049 | 1.823
303.15 K, 101.33 kPa, x1 = 0.7922 | 2.076
303.15 K, 101.33 kPa, x1 = 0.9023 | 2.447
308.15 K, 101 kPa, x1 = 0.0229 | 0.757
308.15 K, 101 kPa, x1 = 0.0543 | 0.772
308.15 K, 101 kPa, x1 = 0.14 | 0.822
308.15 K, 101 kPa, x1 = 0.2319 | 0.894
308.15 K, 101 kPa, x1 = 0.3975 | 1.078
308.15 K, 101 kPa, x1 = 0.5045 | 1.248
308.15 K, 101 kPa, x1 = 0.6384 | 1.537
308.15 K, 101 kPa, x1 = 0.6491 | 1.452
308.15 K, 101 kPa, x1 = 0.7129 | 1.732
308.15 K, 101 kPa, x1 = 0.8283 | 2.09
308.15 K, 101 kPa, x1 = 0.904 | 2.335
313.15 K, 100 kPa, x2 = 0.0815 | 2.08
313.15 K, 100 kPa, x2 = 0.1623 | 1.88
313.15 K, 100 kPa, x2 = 0.2416 | 1.7
313.15 K, 100 kPa, x2 = 0.3481 | 1.47
313.15 K, 100 kPa, x2 = 0.4401 | 1.3
313.15 K, 100 kPa, x2 = 0.5592 | 1.11
313.15 K, 100 kPa, x2 = 0.6501 | 0.98
313.15 K, 100 kPa, x2 = 0.7414 | 0.88
313.15 K, 100 kPa, x2 = 0.8502 | 0.78
313.15 K, 100 kPa, x2 = 0.9414 | 0.72
313.15 K, 101 kPa, x1 = 0.6491 | 1.327
318.15 K, 101 kPa, x1 = 0.0229 | 0.649
318.15 K, 101 kPa, x1 = 0.0543 | 0.658
318.15 K, 101 kPa, x1 = 0.14 | 0.694
318.15 K, 101 kPa, x1 = 0.2319 | 0.758
318.15 K, 101 kPa, x1 = 0.3975 | 0.883
318.15 K, 101 kPa, x1 = 0.5045 | 1.01
318.15 K, 101 kPa, x1 = 0.6384 | 1.227
318.15 K, 101 kPa, x1 = 0.7129 | 1.364
318.15 K, 101 kPa, x1 = 0.8283 | 1.628
318.15 K, 101 kPa, x1 = 0.904 | 1.802
323.15 K, 100 kPa, x2 = 0.0815 | 1.64
323.15 K, 100 kPa, x2 = 0.1623 | 1.49
323.15 K, 100 kPa, x2 = 0.2416 | 1.36
323.15 K, 100 kPa, x2 = 0.3481 | 1.2
323.15 K, 100 kPa, x2 = 0.4401 | 1.08
323.15 K, 100 kPa, x2 = 0.5592 | 0.94
323.15 K, 100 kPa, x2 = 0.6501 | 0.85
323.15 K, 100 kPa, x2 = 0.7414 | 0.77
323.15 K, 100 kPa, x2 = 0.8502 | 0.69
323.15 K, 100 kPa, x2 = 0.9414 | 0.63
